Results as given in US8398958B2, “Carotenoid compositions useful for whitening skin” (I.B.R. Israeli Biotechnology Research Ltd., priority 2006, dated 2013).

Legend:
[1] = test system: B16 murine melanoma cells; assay: Melanin assay - B16 murine melanoma; assay type: cell-based; details: tested at 0.04%
Method: The R7-B16 cells were cultivated in 24 well plates (1000 cells/well). At 20% confluence, culture media were replaced by fresh media containing or not containing (control) the test compound, KA or IBMX (references) or DMSO at a final concentration of 0.5% (control DMSO). Each experimental condition was examined in triplicate. The cells were incubated at 37° C. for 144 hours with medium change after 3 days (2×72 h).
(§1) After incubation, the cell monolayers were rinsed, the cells were lysed and melanin was extracted by a solution 0.5 M NaOH. The optical density (OD) of each experimental point was measured at 405 nm against melanin standards (standard curve 0.39 to 100 μg melanin/ml solution, Sigma M8631). Results were expressed in μg melanin/ml and in percent of the negative control.
(§2) The raw data were transferred to and analyzed with PRISM® software (Graph Pad Software). The inter-group comparisons were performed by variance analysis (ANOVA) with multiple comparison test of Dunnett.

[2] = test system: Normal human epidermal melanocytes (NHEM-2); assay: Melanin assay - normal human melanocytes; assay type: cell-based; details: for Melanin: 240 hours incubation; for % of control (melanin content): 240 hours, vs control
Method: The R6-NHEM-2 cells were cultivated in 24 well plates (120,000 cells/well). At 50% confluence, culture media were replaced by fresh media containing or not containing (control) the test compound, KA or IBMX (references) or DMSO at a final concentration of 0.5% (control DMSO). Each experimental condition was examined in triplicate (hexaplicate for control). The cells were incubated at 37° C. for 240 hours with medium change every 3 days.
as §1, §2

O=c1cc(CO)occ1O [Kojic Acid]
Melanin ([1]; 144 hours incubation): 14.9 µg/mL
% of control (melanin content) ([1]; 144 hours, vs control): 88%
Melanin ([2]; tested at 0.00156%): 16.1 µg/mL
% of control (melanin content) ([2]; tested at 0.00156%): 79%
Melanin ([2]; tested at 0.0036%): 13.6 µg/mL
% of control (melanin content) ([2]; tested at 0.0036%): 67%
